# Results: patent US9572786B2, “Use of capsiate or dihydrocapsidate” (Catholic University Industry Academy Cooperation Foundation, priority 2007, dated 2017)
# Key:
# ERK = assay: MAPK signaling in mouse skin tissue, Western blotting: ERK; assay type: in vivo; conditions: hairless mouse; UV+CPT vs UV with acetone only
# Method: In order to investigate the intracellular mechanism (signaling) related with the inhibition of COX-2 expression by capsiate, Western blotting was carried out for MAPK signaling-related proteins (ERK, p-ERK, p38, p-p38 and JNK, p-JNK) as in Example 2-2, using proteins isolated from the mouse skin tissue.
# MMP-2 = assay: Zymography of secreted MMP-2 after UV; assay type: cell-based, human; conditions: HaCaT culture medium; 10, 25, 50 μM; UV 100 J/m^2; 36 hours
# Method: (§1) Zymography was carried out in order to investigate the decrease of expression and activity of MMP-2 and MMP-9 in protein level.
# (§2) 5×10^5 HaCaT cells were placed on a 60 mm Petri dish and cultured for 24 hours in DMEM containing 10% FBS. Subsequently, the cells were cultured for 24 hours in DMEM containing 1% FBS until starvation. Then, after treating with capsiate at different concentrations (10 μM, 25 μM, 50 μM) for 30 minutes, followed by washing 3 times with PBS, UV was irradiated at an intensity of 100 J/m^2. Immediately after the UV irradiation, the cells were washed again with PBS and further cultured for 36 hours in DMEM containing 1% FBS, which was treated with capsiate at the same concentration as in the pre-treatment. After collecting the culture medium, the activity of MMP-2 and MMP-9 proteins secreted from the cells into the medium was measured. To this end, the mediums obtained from the same number of cells were concentrated to the same volume, and the temperature was maintained at 4° C. in order to avoid the effect on the protein activity.
# (§3) Thus prepared sample was subjected to electrophoresis at 4° C. using 7.5% acrylamide gel containing gelatin but without sodium dodecyl sulfate (SDS). […]
# COX-2 = assay: UV-induced COX-2 expression in mouse skin tissue, immunohistochemical staining; assay type: in vivo; conditions: hairless mouse; 200 μL of 1 mM topically; 4 times of UV irradiation
# Method: In order to confirm the in vitro experiment result performed on the human keratinocyte HaCaT cells in an animal model, experiment was carried out as follows using hairless mouse (SKH-1). Test groups were as follows: non-treated group—treated with acetone only without UV irradiation; test group A—treated with 200 μL of 1 mM capsiate dissolved in acetone every 24 hours without UV irradiation; control group—treated with UV and acetone; test group B—treated with UV and 200 μL of 1 mM capsiate dissolved in acetone every 24 hours (Unspecified conditions are the same as in Examples 5-7.).
# Capsiate was applied on the back of the mouse. 1 hour later, UV was irradiated at an intensity of 2.5 kJ/m^2. 1 hour later, capsiate was applied again at the same concentration in order to prevent rash which may occur immediately after UV irradiation. Thereafter, capsiate was applied every 24 hours and UV irradiation was carried out every other day at an intensity of 2.5 kJ/m^2 for 4 times. In order to investigate the change of tissue and intracellular mechanism (signaling), the mouse was euthanized 1 hour after the final UV irradiation. Skin tissue was taken from the back of the mouse and subjected to skin biopsy following observation.
# In order to reconfirm this effect, immunohistochemical staining was carried out as follows. […]
# MMP-9 = assay: Zymography of secreted MMP-9 after UV; assay type: cell-based, human; conditions: HaCaT culture medium; 10, 25, 50 μM; UV 100 J/m^2; 36 hours
# Method: as §1, §2, §3
# TNF-α = assay: UV-induced TNF-α mRNA in hairless mouse skin, RT-PCR; assay type: in vivo; conditions: 200 μL of 1 mM topically 1 hour before UV 5 kJ/m^2 once, 6 hours later
# Method: In order to investigate the effect of capsiate on the production of IL-6 and TNF-α induced in skin tissue during inflammatory response, the inhibition ability of capsiate against the expression of the pro-inflammatory cytokines was evaluated in animal model as follows. Test groups were as follows: non-treated group—treated with acetone only without UV irradiation; test group A—treated with 200 μL of 1 mM capsiate dissolved in acetone without UV irradiation; UV group—treated with acetone and UV; test group B—treated with 200 μL of 1 mM capsiate dissolved in acetone followed by UV irradiation 1 hour later.
# To this end, acetone and capsiate were treated prior to UV irradiation. After treating with UV once at an intensity of 5 kJ/m^2, hairless mouse was euthanized 6 hours later. mRNA was extracted from the mouse tissue obtained by skin biopsy and RT-PCR was carried out as follows. For RNA extraction from the tissue, each mouse tissue obtained by skin biopsy was quickly frozen in liquid nitrogen and ground finely using a mortar. RNA was extracted from the mouse tissue using Trizol (Invitrogen, USA), and PCR (PTC-225 Peltier thermal cycler, MJ Research, USA) was carried out using it as template and using a commercial kit (reverse transcription system, Qiagen, USA). As a result, cDNA was prepared from each group. […]
smiles,measurement,setting,value
COc1cc(COC(=O)CCCC/C=C/C(C)C)ccc1O [capsiate],ERK phosphorylation in mouse skin tissue,ERK,suppressed phosphorylation
same,expression and activity of MMP-2 (zymography),MMP-2,inhibited expression and activity
same,expression and activity of pro-MMP-2 (zymography),MMP-2,inhibited expression and activity
same,UV-induced increase of COX-2 in mouse skin tissue (immunohistochemical staining),COX-2,effectively inhibited
same,expression and activity of MMP-9 (zymography),MMP-9,inhibited expression and activity
same,UV-induced expression of TNF-α (mRNA) in skin tissue,TNF-α,decrease
